Publication PMC6199744, “Development of Chemical Proteomics for the Folateome and Analysis of the Kinetoplastid Folateome” (ACS Infectious Diseases, 2018)
Like-named read-outs stand apart in the source and are kept apart here.

Assays:
Type in all cases: binding
[1] = biological target: T1, HeLa cell extract proteins (Homo sapiens, UniProt P30046)
T1 construct: endogenous in cells; host or cells: HeLa cell extract

[2] = biological target: T2, HeLa cell extract proteins (Homo sapiens, UniProt P31939)
T2 construct: endogenous in cells; host or cells: HeLa cell extract

[3] = biological target: T3, HeLa cell extract proteins (Homo sapiens, UniProt P40938)
T3 construct: endogenous in cells; host or cells: HeLa cell extract

[4] = biological target: T4, HeLa cell extract proteins (Homo sapiens, UniProt P61088)
T4 construct: endogenous in cells; host or cells: HeLa cell extract
T4 sequence (P61088 1-152): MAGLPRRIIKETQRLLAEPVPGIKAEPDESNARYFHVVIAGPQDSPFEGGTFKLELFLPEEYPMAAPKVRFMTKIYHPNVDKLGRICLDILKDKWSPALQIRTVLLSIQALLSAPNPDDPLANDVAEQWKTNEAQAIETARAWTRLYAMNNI

[5] = biological target: T5, HeLa cell extract proteins (Homo sapiens, UniProt P68871)
T5 construct: endogenous in cells; host or cells: HeLa cell extract

[6] = biological target: T6, HeLa cell extract proteins (Homo sapiens, UniProt O00767); settings: captured protein SCD; HeLa
T6 construct: endogenous in cells; host or cells: HeLa cell extract
T6 sequence (O00767 1-359): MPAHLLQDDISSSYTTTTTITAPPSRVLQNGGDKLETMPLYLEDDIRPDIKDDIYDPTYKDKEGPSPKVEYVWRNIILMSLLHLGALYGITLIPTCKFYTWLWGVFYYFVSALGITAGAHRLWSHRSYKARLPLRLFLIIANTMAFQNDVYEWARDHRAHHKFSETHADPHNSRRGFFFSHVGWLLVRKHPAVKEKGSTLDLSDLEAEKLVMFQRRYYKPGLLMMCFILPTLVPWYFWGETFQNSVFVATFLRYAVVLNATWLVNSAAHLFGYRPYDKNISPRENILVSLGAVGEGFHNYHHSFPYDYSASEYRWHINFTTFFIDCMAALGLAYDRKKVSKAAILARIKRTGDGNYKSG

[7] = biological target: T7, HeLa cell extract proteins (Homo sapiens, UniProt O95433); settings: protein AHSA1; HeLa
T7 construct: endogenous in cells; host or cells: HeLa cell extract

[8] = biological target: T8, HeLa cell extract proteins (Homo sapiens, UniProt P36776); settings: protein LONP1; HeLa
T8 construct: endogenous in cells; host or cells: HeLa cell extract
T8 sequence (P36776 68-959): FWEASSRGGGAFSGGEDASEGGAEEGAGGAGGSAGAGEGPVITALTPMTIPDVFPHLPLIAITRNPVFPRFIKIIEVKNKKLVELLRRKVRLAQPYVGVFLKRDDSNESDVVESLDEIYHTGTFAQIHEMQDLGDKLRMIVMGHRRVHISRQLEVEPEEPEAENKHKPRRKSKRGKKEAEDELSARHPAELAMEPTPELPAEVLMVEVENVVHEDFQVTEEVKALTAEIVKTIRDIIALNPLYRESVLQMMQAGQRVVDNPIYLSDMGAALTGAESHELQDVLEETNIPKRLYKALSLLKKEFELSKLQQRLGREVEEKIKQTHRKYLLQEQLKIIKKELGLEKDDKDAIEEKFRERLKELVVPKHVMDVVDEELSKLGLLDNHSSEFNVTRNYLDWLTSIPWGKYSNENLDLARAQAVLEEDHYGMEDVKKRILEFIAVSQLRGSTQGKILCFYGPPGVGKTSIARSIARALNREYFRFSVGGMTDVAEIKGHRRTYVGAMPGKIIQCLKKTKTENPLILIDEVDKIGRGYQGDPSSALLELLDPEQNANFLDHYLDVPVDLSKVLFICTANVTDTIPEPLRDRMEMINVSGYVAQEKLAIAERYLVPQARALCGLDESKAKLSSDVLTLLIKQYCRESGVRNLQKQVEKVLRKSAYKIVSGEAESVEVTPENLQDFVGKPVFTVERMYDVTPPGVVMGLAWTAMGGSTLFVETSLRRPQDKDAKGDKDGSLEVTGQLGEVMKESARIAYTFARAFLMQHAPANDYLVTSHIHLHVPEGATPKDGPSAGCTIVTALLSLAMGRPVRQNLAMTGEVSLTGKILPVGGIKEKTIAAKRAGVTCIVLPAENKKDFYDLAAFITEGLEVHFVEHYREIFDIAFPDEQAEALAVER

[9] = biological target: T9, HeLa cell extract proteins (Homo sapiens, UniProt P48556); settings: captured protein PSMD8; HeLa
T9 construct: endogenous in cells; host or cells: HeLa cell extract
T9 sequence (P48556 1-350): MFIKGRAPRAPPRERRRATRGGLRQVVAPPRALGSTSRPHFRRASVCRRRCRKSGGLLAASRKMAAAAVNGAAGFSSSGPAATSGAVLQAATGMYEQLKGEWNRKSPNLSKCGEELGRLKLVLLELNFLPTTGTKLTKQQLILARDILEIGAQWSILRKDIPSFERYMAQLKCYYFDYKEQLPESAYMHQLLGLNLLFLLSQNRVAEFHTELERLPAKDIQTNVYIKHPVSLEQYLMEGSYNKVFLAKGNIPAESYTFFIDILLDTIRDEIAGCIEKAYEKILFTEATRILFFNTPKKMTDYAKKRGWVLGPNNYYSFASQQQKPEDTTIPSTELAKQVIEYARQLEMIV

[10] = biological target: T10, HeLa cell extract proteins (Homo sapiens, UniProt Q16795); settings: captured protein NDUFA9; HeLa
T10 construct: endogenous in cells; host or cells: HeLa cell extract

[11] = biological target: T11, HeLa cell extract proteins (Homo sapiens, UniProt Q9UJ70); settings: captured protein NAGK; HeLa
T11 construct: endogenous in cells; host or cells: HeLa cell extract

[12] = biological target: T12, HeLa cell extract proteins (Homo sapiens, UniProt Q9Y5A9); settings: captured protein YTHDF2; HeLa
T12 construct: endogenous in cells; host or cells: HeLa cell extract
T12 sequence (Q9Y5A9 1-579): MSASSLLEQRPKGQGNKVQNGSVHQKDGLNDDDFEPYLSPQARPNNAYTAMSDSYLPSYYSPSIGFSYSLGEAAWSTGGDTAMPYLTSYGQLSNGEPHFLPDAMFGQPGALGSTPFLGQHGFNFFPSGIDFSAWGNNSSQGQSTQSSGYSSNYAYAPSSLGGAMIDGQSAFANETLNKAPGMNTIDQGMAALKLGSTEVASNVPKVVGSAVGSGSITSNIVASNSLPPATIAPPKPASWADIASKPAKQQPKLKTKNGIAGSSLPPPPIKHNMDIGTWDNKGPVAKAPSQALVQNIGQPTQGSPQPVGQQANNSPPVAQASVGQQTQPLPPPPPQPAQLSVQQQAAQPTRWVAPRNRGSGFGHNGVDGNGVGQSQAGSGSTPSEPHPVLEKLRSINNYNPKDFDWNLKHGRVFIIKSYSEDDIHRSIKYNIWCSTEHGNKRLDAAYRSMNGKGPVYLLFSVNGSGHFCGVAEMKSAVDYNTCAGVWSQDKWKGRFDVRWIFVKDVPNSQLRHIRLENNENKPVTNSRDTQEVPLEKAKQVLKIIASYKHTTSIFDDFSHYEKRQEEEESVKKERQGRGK

[13] = HeLa, protein HBB (BETA-GLOBIN GENE FROM A T[…])

T7 sequence (O95433 whole entry): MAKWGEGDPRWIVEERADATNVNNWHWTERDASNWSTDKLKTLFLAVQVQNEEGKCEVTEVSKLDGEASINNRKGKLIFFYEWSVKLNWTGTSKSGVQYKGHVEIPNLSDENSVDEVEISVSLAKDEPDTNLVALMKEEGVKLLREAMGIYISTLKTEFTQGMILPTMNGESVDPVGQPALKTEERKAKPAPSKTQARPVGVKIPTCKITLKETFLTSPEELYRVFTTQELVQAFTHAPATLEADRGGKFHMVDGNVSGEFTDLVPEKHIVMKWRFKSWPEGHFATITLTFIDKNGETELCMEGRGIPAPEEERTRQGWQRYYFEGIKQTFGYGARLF
T10 sequence (Q16795 36-377): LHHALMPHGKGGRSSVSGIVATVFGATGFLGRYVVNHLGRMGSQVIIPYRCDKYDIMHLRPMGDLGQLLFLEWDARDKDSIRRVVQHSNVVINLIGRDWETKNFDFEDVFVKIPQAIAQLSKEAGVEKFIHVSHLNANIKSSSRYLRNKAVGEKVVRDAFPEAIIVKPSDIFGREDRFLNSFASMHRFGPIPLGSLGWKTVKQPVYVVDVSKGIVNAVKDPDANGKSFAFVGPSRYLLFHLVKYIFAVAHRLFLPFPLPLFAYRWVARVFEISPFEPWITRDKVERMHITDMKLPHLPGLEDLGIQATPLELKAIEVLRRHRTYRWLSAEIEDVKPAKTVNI
T3 sequence (P40938 whole entry): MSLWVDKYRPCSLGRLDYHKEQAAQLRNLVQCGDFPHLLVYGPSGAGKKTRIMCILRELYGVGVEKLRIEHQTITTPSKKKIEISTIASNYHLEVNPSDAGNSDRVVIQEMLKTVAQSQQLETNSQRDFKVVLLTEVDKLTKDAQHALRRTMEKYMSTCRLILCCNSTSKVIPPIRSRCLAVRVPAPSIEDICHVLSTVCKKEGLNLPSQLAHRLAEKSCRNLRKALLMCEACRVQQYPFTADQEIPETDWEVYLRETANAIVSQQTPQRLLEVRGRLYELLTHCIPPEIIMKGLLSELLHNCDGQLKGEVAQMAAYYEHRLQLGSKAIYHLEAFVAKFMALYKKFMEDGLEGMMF
T11 sequence (Q9UJ70 whole entry): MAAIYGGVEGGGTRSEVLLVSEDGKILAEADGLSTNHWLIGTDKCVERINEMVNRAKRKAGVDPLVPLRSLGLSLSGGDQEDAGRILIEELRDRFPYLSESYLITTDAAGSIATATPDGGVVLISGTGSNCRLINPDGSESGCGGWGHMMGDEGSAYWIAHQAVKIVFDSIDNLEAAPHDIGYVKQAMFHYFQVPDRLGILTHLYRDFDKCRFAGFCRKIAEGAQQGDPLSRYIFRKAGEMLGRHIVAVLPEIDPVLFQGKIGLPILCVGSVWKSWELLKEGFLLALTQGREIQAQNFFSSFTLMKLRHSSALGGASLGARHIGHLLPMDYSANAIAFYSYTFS
T2 sequence (P31939 whole entry): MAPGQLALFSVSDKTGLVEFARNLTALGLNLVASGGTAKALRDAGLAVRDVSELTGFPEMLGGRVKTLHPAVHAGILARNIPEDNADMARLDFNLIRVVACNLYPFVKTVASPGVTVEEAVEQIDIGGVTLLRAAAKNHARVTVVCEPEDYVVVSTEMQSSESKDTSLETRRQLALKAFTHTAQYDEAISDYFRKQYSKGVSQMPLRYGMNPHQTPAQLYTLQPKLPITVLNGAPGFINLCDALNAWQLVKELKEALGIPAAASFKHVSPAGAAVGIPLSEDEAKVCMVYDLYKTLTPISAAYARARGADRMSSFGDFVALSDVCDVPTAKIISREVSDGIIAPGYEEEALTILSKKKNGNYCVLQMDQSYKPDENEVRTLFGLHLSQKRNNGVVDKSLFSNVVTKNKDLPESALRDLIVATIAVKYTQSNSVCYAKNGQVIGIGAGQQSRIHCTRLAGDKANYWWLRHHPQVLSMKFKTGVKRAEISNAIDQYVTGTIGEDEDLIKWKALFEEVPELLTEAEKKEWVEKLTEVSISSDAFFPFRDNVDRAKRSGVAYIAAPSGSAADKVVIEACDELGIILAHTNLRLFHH
T5 sequence (P68871 whole entry): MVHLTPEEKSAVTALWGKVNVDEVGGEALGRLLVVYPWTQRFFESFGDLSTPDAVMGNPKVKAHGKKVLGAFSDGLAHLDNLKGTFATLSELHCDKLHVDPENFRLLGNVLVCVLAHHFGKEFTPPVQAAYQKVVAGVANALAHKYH
T1 sequence (P30046 whole entry): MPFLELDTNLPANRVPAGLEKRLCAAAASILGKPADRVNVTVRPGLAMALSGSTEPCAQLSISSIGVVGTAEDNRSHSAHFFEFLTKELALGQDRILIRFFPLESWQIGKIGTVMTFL

Structure (SMILES) | fold changes relative to vehicle control ([1]; HeLa, captured protein DDT) | fold changes relative to vehicle control ([2]; HeLa, protein ATIC) | fold changes relative to vehicle control ([3]; HeLa, protein RFC3) | fold changes relative to vehicle control ([4]; HeLa, protein UBE2N) | fold changes relative to vehicle control [5, 13] | fold changes relative to vehicle control [6] | fold changes relative to vehicle control [7] | fold changes relative to vehicle control [8] | fold changes relative to vehicle control [9] | fold changes relative to vehicle control [10] | fold changes relative to vehicle control [11] | fold changes relative to vehicle control [12] | further results
Nc1nc2c(c(=O)[nH]1)N(C=O)C(CNc1ccc(C(=O)N[C@@H](CCC(=O)O)C(=O)O)cc1)CN2 (some centres unmarked) [LEU, leucovorin] | 1.06 | 1.06 | 0.99 | 1.06 | 1.13 | – | – | – | – | – | – | – | –
Nc1nc2[nH]cc(CCc3ccc(C(=O)N[C@@H](CCC(=O)O)C(=O)O)cc3)c2c(=O)[nH]1 [PTX, pemetrexed] | – | – | – | – | – | – | – | – | – | – | – | – | fold changes relative to vehicle control [1]: 1.49; fold changes relative to vehicle control [2]: 0.91; fold changes relative to vehicle control [3]: 1.01; fold changes relative to vehicle control [4]: 1.83; fold changes relative to vehicle control [5]: 0.94
CCCCCCOc1ccc(Cc2cnc(N)nc2N)cc1 [compound 1] | – | – | – | – | – | 0.92 | 1.17 | 0.86 | 0.89 | 1.01 | 0.83 | 0.79 | –
CCCCCCOc1cccc(Cc2cnc(N)nc2N)c1 [compound 2] | – | – | – | – | – | 0.91 | 1.63 | 1.41 | 1.08 | 0.87 | 1.2 | 1.16 | –
Nc1nc2cccc(-c3ccccc3)c2n1Cc1ccc(Cl)c(Cl)c1 [compound 3] | – | – | – | – | – | 1 | 1.24 | 1.16 | 0.78 | 1.04 | 0.77 | 1.01 | –
NCCOCCOCC(=O)Nc1nc2ncc(CNc3ccc(C(=O)NC(CCC(=O)O)C(=O)O)cc3)nc2c(=O)[nH]1 (centres unmarked) [compound 6] | 1.79 | 1.13 | 1.14 | 1.78 | 0.99 | – | – | – | – | – | – | – | –
NCCCNc1ccc(C(=O)NC(CCC(=O)O)C(=O)O)cc1 (centres unmarked) [compound 7] | 1.25 | 0.99 | 1.16 | 1.19 | 0.87 | – | – | – | – | – | – | – | –
